Assay results reported in ChEMBL document CHEMBL5528016, “Design, synthesis and evaluation of novel deferasirox derivatives with high antifungal potency in vitro and in vivo” (Eur J Med Chem, 2024).
Values after ≈ are worked out from the molar mass of the structure shown. Active and inactive are the calls of the source. The rule behind the calls is not given here.

Key:
Cryptococcus neoformans [1] = test: Antifungal activity against Cryptococcus neoformans HN1 assessed as reduction in fungal growth incubated for 72 hrs by broth microdilution method; type: functional
Nakaseomyces glabratus [2] = test: Antifungal activity against Candida glabrata 537 assessed as reduction in fungal growth incubated for 72 hrs by broth microdilution method; type: functional
Pichia kudriavzevii = test: Antifungal activity against Pichia kudriavzevii 4946 assessed as reduction in fungal growth incubated for 72 hrs by broth microdilution method; type: functional
Candida tropicalis = test: Antifungal activity against Candida tropicalis 2718 assessed as reduction in fungal growth incubated for 72 hrs by broth microdilution method; type: functional
Nakaseomyces glabratus [3] = test: Antifungal activity against Candida glabrata 337 assessed as reduction in fungal growth incubated for 48 hrs by broth microdilution method; type: functional
Nakaseomyces glabratus [4] = test: Antifungal activity against Candida glabrata 203 assessed as reduction in fungal growth incubated for 48 hrs by broth microdilution method; type: functional
[Candida] auris = Antifungal activity against Candida auris D12 assessed as reduction in fungal growth incubated for 72 hrs by broth microdilution method; type: functional; settings: Candidozyma auris
Nakaseomyces glabratus [5] = test: Antifungal activity against Candida glabrata Y10-15 assessed as reduction in fungal growth incubated for 48 hrs by broth microdilution method; type: functional
[6] = Antifungal activity against Cryptococcus gattii VGI WM179 assessed as reduction in fungal growth incubated for 72 hrs by broth microdilution method; type: functional
Cryptococcus neoformans [7] = test: Antifungal activity against Cryptococcus neoformans 20 assessed as reduction in fungal growth incubated for 72 hrs by broth microdilution method; type: functional
[8] = Antifungal activity against Cryptococcus gattii VGI WM178 assessed as reduction in fungal growth incubated for 72 hrs by broth microdilution method; type: functional
Cryptococcus neoformans [9] = test: Antifungal activity against Cryptococcus neoformans 444 assessed as reduction in fungal growth incubated for 72 hrs by broth microdilution method; type: functional
Erythrocyte = test: Hemolytic activity in rabbit Red blood cell at 64 ug/ml; type: toxicity, cell-based, Oryctolagus cuniculus; settings: dose 64 µg/ml
[10] = Antifungal activity against Cryptococcus gattii VGI SCZ20031 assessed as reduction in fungal growth incubated for 72 hrs by broth microdilution method; type: functional
[11] = Antifungal activity against Cryptococcus gattii VGI SCZ20024 assessed as reduction in fungal growth incubated for 72 hrs by broth microdilution method; type: functional
Nakaseomyces glabratus [12] = test: Antifungal activity against Candida glabrata YC1-34 assessed as reduction in fungal growth incubated for 48 hrs by broth microdilution method; type: functional
Cryptococcus neoformans [13] = test: Antifungal activity against Cryptococcus neoformans HN15 assessed as reduction in fungal growth incubated for 72 hrs by broth microdilution method; type: functional
[14] = Antifungal activity against Cryptococcus gattii VGI E566 assessed as reduction in fungal growth incubated for 72 hrs by broth microdilution method; type: functional
Candida parapsilosis = test: Antifungal activity against Candida parapsilosis ATCC 22019 assessed as reduction in fungal growth incubated for 72 hrs by broth microdilution method; type: functional; settings: Lodderomyces parapsilosis
Cryptococcus neoformans [15] = test: Antifungal activity against Cryptococcus neoformans BJ3 assessed as reduction in fungal growth incubated for 72 hrs by broth microdilution method; type: functional
Candida albicans = test: Antifungal activity against Candida albicans SC5314 assessed as reduction in fungal growth incubated for 72 hrs by broth microdilution method; type: functional
[16] = Hemolytic activity in rabbit Red blood cell at 2 ug/ml relative to control; type: toxicity, cell-based, Oryctolagus cuniculus, Erythrocyte; settings: red blood cells, at 2 µg/mL, read-out: Activity
[17] = Hemolytic activity in rabbit Red blood cell at 64 ug/ml relative to control; type: toxicity, cell-based, Oryctolagus cuniculus, Erythrocyte; settings: red blood cells, at 64 µg/mL, read-out: Activity
Caco-2 = test: Cytotoxicity against human Caco-2 cells assessed as reduction in cell viability at 0.25 to 64 ug/ml incubated for 2 hrs by CCK-8 assay; type: toxicity, cell-based; settings: caco-2, 2 h, dose 0.25-64 µg/ml
HUVEC = test: Cytotoxicity against HUVEC cells assessed as reduction in cell viability at 0.25 to 64 ug/ml incubated for 2 hrs by CCK-8 assay; type: toxicity, cell-based; settings: human, dose 0.25-64 µg/ml
Cryptococcus neoformans [18] = test: Antifungal activity against Cryptococcus neoformans H99 assessed as reduction in fungal growth incubated for 72 hrs by broth microdilution method; type: functional
[19] = Toxicity against ICR mouse assessed as glomerular enlargement at 50 mg/kg, ip administered at 24 hrs interval for 7 days by hematoxylin and eosin staining based analysis; type: organism-based; settings: in vivo, 168 h, time 7 day
[20] = Metabolic stability in mouse liver microsomes assessed as elimination rate constant; type: ADME, Microsome
[21] = Toxicity against ICR mouse assessed as reduction in lipid droplet at 50 mg/kg, ip administered at 24 hrs interval for 7 days by hematoxylin and eosin staining based analysis; type: organism-based; settings: in vivo, 168 h, time 7 day
[22] = Toxicity against ICR mouse assessed as inflammatory cell infiltration at 50 mg/kg, ip administered at 24 hrs interval for 7 days by hematoxylin and eosin staining based analysis; type: organism-based; settings: in vivo, 168 h, time 7 day
[23] = Toxicity against ICR mouse assessed as increase in monocytes at 50 mg/kg, ip administered at 24 hrs interval for 7 days by hematoxylin and eosin staining based analysis; type: organism-based; settings: in vivo, 168 h, time 7 day
[24] = Metabolic stability in mouse liver microsomes assessed as intrinsic clearance; type: ADME, Microsome; settings: read-out: CLH
[25] = Metabolic stability in mouse liver microsomes assessed as half life; type: ADME, Microsome
[26] = Toxicity against ICR mouse assessed as hypertrophy at 50 mg/kg, ip administered at 24 hrs interval for 7 days by hematoxylin and eosin staining based analysis; type: organism-based; settings: in vivo, 168 h, time 7 day
[27] = Toxicity against ICR mouse assessed as enlargement of cytoplasm in hepatocytes at 50 mg/kg, ip administered at 24 hrs interval for 7 days by hematoxylin and eosin staining based analysis; type: organism-based; settings: in vivo
[28] = Toxicity against ICR mouse assessed as enlargement of nucleus in hepatocytes at 50 mg/kg, ip administered at 24 hrs interval for 7 days by hematoxylin and eosin staining based analysis; type: organism-based; settings: in vivo, 168 h, time 7 day
Cryptococcus neoformans [29] = test: Antifungal activity against Cryptococcus neoformans H99 infected in C57BL/6J mouse assessed as reduction in fungal burden in brain at 10 mg/kg, ip; type: functional, organism-based
[30] = Toxicity against ICR mouse assessed as reduction in lipid droplet at 20 mg/kg, ip administered at 24 hrs interval for 7 days by hematoxylin and eosin staining based analysis; type: organism-based; settings: in vivo, 168 h, time 7 day
Cryptococcus neoformans [31] = test: Antifungal activity against Cryptococcus neoformans H99 infected in C57BL/6J mouse assessed as reduction in fungal burden in lung at 2 mg/kg, ip; type: functional, organism-based
Cryptococcus neoformans [32] = test: Antifungal activity against Cryptococcus neoformans assessed as increase in MIC incubated for 72 hrs in presence of FeCl3 by broth microdilution method; type: functional, organism-based
Cryptococcus neoformans [33] = test: Antifungal activity against Cryptococcus neoformans H99 infected in C57BL/6J mouse assessed as reduction in fungal burden in lung at 10 mg/kg, ip; type: functional, organism-based
[34] = Nephrotoxicity in ICR mouse at 50 mg/kg, ip administered at 24 hrs interval for 7 days by hematoxylin and eosin staining based analysis; type: toxicity, organism-based; settings: in vivo, 168 h, time 7 day
Cryptococcus neoformans [35] = test: Antifungal activity against Cryptococcus neoformans H99 infected in C57BL/6J mouse assessed as reduction in fungal burden in brain at 2 mg/kg, ip; type: functional, organism-based

| Compound | MIC (Cryptococcus neoformans [1]) | MIC (Nakaseomyces glabratus [2]) | MIC (Pichia kudriavzevii) | MIC (Candida tropicalis) | MIC (Nakaseomyces glabratus [3]) | MIC (Nakaseomyces glabratus [4]) | MIC ([Candida] auris) | MIC (Nakaseomyces glabratus [5]) | MIC [6] | MIC (Cryptococcus neoformans [7]) | MIC [8] | MIC (Cryptococcus neoformans [9]) | MIC [10] | MIC [11] | MIC (Nakaseomyces glabratus [12]) | MIC (Cryptococcus neoformans [13]) | MIC [14] | MIC (Candida parapsilosis) | MIC (Cryptococcus neoformans [15]) | MIC (Candida albicans) | also measured |
| --- | --- | --- | --- | --- | --- | --- | --- | --- | --- | --- | --- | --- | --- | --- | --- | --- | --- | --- | --- | --- | --- |
| OC(Cn1cncn1)(Cn1cncn1)c1ccc(F)cc1F [FLUCONAZOLE] | 2 µg/mL (≈ 6.53 µM) | 0.25 µg/mL (≈ 0.816 µM) | 16 µg/mL (≈ 52.2 µM) | < 0.125 µg/mL | 2 µg/mL (≈ 6.53 µM) | > 64 µg/mL | > 64 µg/mL | 4 µg/mL (≈ 13.1 µM) | 16 µg/mL (≈ 52.2 µM) | 8 µg/mL (≈ 26.1 µM) | 16 µg/mL (≈ 52.2 µM) | 16 µg/mL (≈ 52.2 µM) | 4 µg/mL (≈ 13.1 µM) | 4 µg/mL (≈ 13.1 µM) | 2 µg/mL (≈ 6.53 µM) | 4 µg/mL (≈ 13.1 µM) | 32 µg/mL (≈ 104 µM) | 1 µg/mL (≈ 3.27 µM) | 8 µg/mL (≈ 26.1 µM) | 0.125 µg/mL (≈ 0.408 µM) | Activity (Erythrocyte): Non-Toxic |
| C[C@@H]1[C@H](O)[C@@H](C)/C=C/C=C/C=C/C=C/C=C/C=C/C=C/[C@H](O[C@@H]2O[C@H](C)[C@@H](O)[C@H](N)[C@@H]2O)C[C@@H]2O[C@](O)(C[C@@H](O)C[C@@H](O)[C@H](O)CC[C@@H](O)C[C@@H](O)CC(=O)O[C@H]1C)C[C@H](O)[C@H]2C(=O)O [AMPHOTERICIN B] | 1 µg/mL (≈ 1.08 µM) | < 0.125 µg/mL |  | 1 µg/mL (≈ 1.08 µM) | 0.5 µg/mL (≈ 0.541 µM) | 16 µg/mL (≈ 17.3 µM) | 8 µg/mL (≈ 8.66 µM) | 2 µg/mL (≈ 2.16 µM) | 1 µg/mL (≈ 1.08 µM) |  | 1 µg/mL (≈ 1.08 µM) | 2 µg/mL (≈ 2.16 µM) | 1 µg/mL (≈ 1.08 µM) | 1 µg/mL (≈ 1.08 µM) | 1 µg/mL (≈ 1.08 µM) | 8 µg/mL (≈ 8.66 µM) | 4 µg/mL (≈ 4.33 µM) | 0.5 µg/mL (≈ 0.541 µM) | 2 µg/mL (≈ 2.16 µM) | 1 µg/mL (≈ 1.08 µM) | hemolysis at 2 ug/ml [16]: > 10%; hemolysis at 64 ug/ml [17]: 100%; Activity (Caco-2): Non-Toxic; Activity (HUVEC): Non-Toxic |
| O=C(O)c1ccc(-n2nc(-c3ccccc3O)nc2-c2ccccc2O)cc1 [DEFERASIROX] | 4 µg/mL (≈ 10.7 µM) | 0.5 µg/mL (≈ 1.34 µM) | 2 µg/mL (≈ 5.36 µM) | 8 µg/mL (≈ 21.4 µM) | 0.5 µg/mL (≈ 1.34 µM) | 2 µg/mL (≈ 5.36 µM) | > 64 µg/mL | 0.5 µg/mL (≈ 1.34 µM) | 8 µg/mL (≈ 21.4 µM) | 2 µg/mL (≈ 5.36 µM) | 8 µg/mL (≈ 21.4 µM) | 8 µg/mL (≈ 21.4 µM) | 2 µg/mL (≈ 5.36 µM) | 2 µg/mL (≈ 5.36 µM) | 0.25 µg/mL (≈ 0.67 µM) | 2 µg/mL (≈ 5.36 µM) | 8 µg/mL (≈ 21.4 µM) | 32 µg/mL (≈ 85.7 µM) | 8 µg/mL (≈ 21.4 µM) | > 64 µg/mL | MIC (Cryptococcus neoformans [18]): 2 µg/mL (≈ 5.36 µM); Activity [19]: Toxic; k el [20]: 5e-05 s⁻¹; Activity [21]: Toxic; Activity [22]: Toxic; Activity [23]: Toxic; microsomal CLint [24]: 5.94 µL/min/mg; half-life [25]: 3.9 h; Activity [26]: Toxic; Activity [27]: Toxic; Activity [28]: Toxic |
| O=C(NC1CCS(=O)(=O)C1)c1ccc(-n2nc(-c3ccccc3O)nc2-c2ccccc2O)cc1 (configuration not stated) | < 0.125 µg/mL | < 0.125 µg/mL | 0.25 µg/mL (≈ 0.51 µM) | 2 µg/mL (≈ 4.08 µM) | < 0.125 µg/mL | < 0.125 µg/mL | > 64 µg/mL | < 0.125 µg/mL | 0.5 µg/mL (≈ 1.02 µM) | < 0.125 µg/mL | 0.25 µg/mL (≈ 0.51 µM) | 1 µg/mL (≈ 2.04 µM) | < 0.125 µg/mL | 0.25 µg/mL (≈ 0.51 µM) | < 0.125 µg/mL | < 0.125 µg/mL | 0.5 µg/mL (≈ 1.02 µM) | 64 µg/mL (≈ 130 µM) | 0.5 µg/mL (≈ 1.02 µM) | 4 µg/mL (≈ 8.15 µM) | MIC (Cryptococcus neoformans [18]): 0.25 µg/mL (≈ 0.51 µM); k el [20]: 8.33e-05 s⁻¹; Activity (Cryptococcus neoformans [29]): Active; Activity [30]: Toxic; Activity (Cryptococcus neoformans [31]): inactive; Activity (Cryptococcus neoformans [32]): inactive; Activity (Cryptococcus neoformans [33]): Active; Activity [21]: Toxic; Activity [34]: Toxic; microsomal CLint [24]: 10.9 µL/min/mg; Activity (Caco-2): Non-Toxic; half-life [25]: 2.13 h; Activity (Erythrocyte): Non-Toxic; Activity (Cryptococcus neoformans [35]): inactive; Activity [26]: Toxic; Activity [27]: Toxic; Activity (HUVEC): Non-Toxic; Activity [28]: Toxic |
